Values of other authors, collected in patent publication US20170281596A1, “PHARMACEUTICAL COMBINATION CONTAINING AN ANALGESIC AGENT AND AN ANTISPASMODIC AGENT” (priority 2014, published 2017).

O=C(c1ccccc1)c1ccc2n1CCC2C(=O)O (centres unmarked) [Ketorolac, carboxylic acid-5-Benzoyl-2,3-dihydro-1H-pyrrolisine-1,2-amino-2-hydroxymethyl-1,3-propanediol]
time at which the plasma concentration level is reached (administered every 6 hours): 24 h | urinary elimination of Ketorolac and its metabolites (main route of elimination, remainder through feces): 92%
